Where “and” joins values, the source holds several entries; their conditions need not be identical. Equal entries are not always repeated.
What was measured:
Format in all cases: cell-based
[1] = molecular target: T1, constitutively active EP2 M116A (Homo sapiens, UniProt P43116, M116A); test: GloSensor cAMP assay, inhibition of constitutive activity
T1 construct: The full-length EP2 or EP4 was cloned into the pcDNA3.1 vector; FLAG (N); expressed in transfected cells; host or cells: AD293 cells
In short: (§1)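 Read-out is GloSensor luminescence from AD293 cells co-expressing FLAG-tagged EP2 variant and GloSensor22F biosensor, transfected at a 1:1 plasmid ratio. Cells were plated at 4000 per well in CO2-independent medium containing 2% cAMP reagent, incubated 1 h at 37 °C, then read.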

[2] = molecular target: T2, constitutively active EP2 T82A (Homo sapiens, UniProt P43116, T82A); test: as above
T2 construct: The full-length EP2 or EP4 was cloned into the pcDNA3.1 vector; FLAG (N); expressed in transfected cells; host or cells: AD293 cells
In short: as §1

EP2 S86A = molecular target: T3, EP2 S86A (Homo sapiens, UniProt P43116, S86A); test: GloSensor cAMP assay, antagonism of PGE2-induced cAMP; conditions: single experiments 1st-3rd
T3 construct: The full-length EP2 or EP4 was cloned into the pcDNA3.1 vector; FLAG (N); expressed in transfected cells; host or cells: AD293 cells
In short: as §1

EP2 W186A = molecular target: T4, EP2 W186A (Homo sapiens, UniProt P43116, W186A); test: as above; conditions: 1 h, single experiments 1st-3rd, Fig. 3D, read-out: % cAMP activity (normalized to WT)
T4 construct: The full-length EP2 or EP4 was cloned into the pcDNA3.1 vector; FLAG (N); expressed in transfected cells; host or cells: AD293 cells
In short: as §1

EP2 S305A = molecular target: T5, EP2 S305A (Homo sapiens, UniProt P43116, S305A); test: as above; conditions: single experiments 1st-3rd
T5 construct: The full-length EP2 or EP4 was cloned into the pcDNA3.1 vector; FLAG (N); expressed in transfected cells; host or cells: AD293 cells
In short: as §1

EP2 S308A = molecular target: T6, EP2 S308A (Homo sapiens, UniProt P43116, S308A); test: as above; conditions: single experiments 1st-3rd
T6 construct: The full-length EP2 or EP4 was cloned into the pcDNA3.1 vector; FLAG (N); expressed in transfected cells; host or cells: AD293 cells
In short: as §1

EP2 T82A = molecular target: T7, EP2 T82A (Homo sapiens, UniProt P43116, T82A); test: as above; conditions: 1 h, single experiments 1st-3rd, Fig. 3D, read-out: % cAMP activity (normalized to WT)
T7 construct: The full-length EP2 or EP4 was cloned into the pcDNA3.1 vector; FLAG (N); expressed in transfected cells; host or cells: AD293 cells
In short: as §1

EP2 M116A = molecular target: T8, EP2 M116A (Homo sapiens, UniProt P43116, M116A); test: as above; conditions: 1 h, single experiments 1st-3rd, Fig. 3D, read-out: % cAMP activity (normalized to WT)
T8 construct: The full-length EP2 or EP4 was cloned into the pcDNA3.1 vector; FLAG (N); expressed in transfected cells; host or cells: AD293 cells
In short: as §1

EP2-L301I = molecular target: T9, EP2-L301I (Homo sapiens, UniProt P43116, L301I); test: GloSensor cAMP assay, antagonism of PGE2-induced cAMP, chimeric studies; conditions: single experiments 1st-3rd
T9 construct: The full-length EP2 or EP4 was cloned into the pcDNA3.1 vector; FLAG (N); expressed in transfected cells; host or cells: AD293 cells
Experimental: (§2) The full-length EP2 or EP4 was cloned into the pcDNA3.1 vector (Invitrogen), incorporating an N-terminal FLAG tag. AD293 cells were seeded in six-well plates containing DMEM supplemented with 10% dialyzed FBS 1 day prior to transfection. Following overnight growth, cells were transfected with a 1:1 ratio of receptor construct and GloSensor22F cAMP biosensor (Promega) plasmids.
(§3) Twenty-four hours post-transfection, the cells were transferred to CO2-independent media containing 2% GloSensor cAMP Reagent (Promega) and distributed into 384-well assay plates at a density of 4000 cells per well in 10 μL. […] The plates were then incubated at 37 °C for an additional hour before luminescence measurements were taken using an EnVision plate reader.
(§4) Data analysis was performed using GraphPad Prism software v8.0.1. A nonlinear regression analysis, employing a sigmoidal dose–response model, was conducted to determine the Emax values and half-maximum inhibitory concentrations (IC50) for each compound tested.

EP2-I85V = molecular target: T10, EP2-I85V (Homo sapiens, UniProt P43116, I85V); test: as above; conditions: single experiments 1st-3rd
T10 construct: The full-length EP2 or EP4 was cloned into the pcDNA3.1 vector; FLAG (N); expressed in transfected cells; host or cells: AD293 cells
Experimental: as §2, §3, §4

EP2-M116L = molecular target: T11, EP2-M116L (Homo sapiens, UniProt P43116, M116L); test: as above; conditions: single experiments 1st-3rd
T11 construct: The full-length EP2 or EP4 was cloned into the pcDNA3.1 vector; FLAG (N); expressed in transfected cells; host or cells: AD293 cells
Experimental: as §2, §3, §4

[3] = 1 h, PF-04418948 log([M]) -10.00, read-out: % cAMP activity (normalized to WT)
[4] = no PGE2, pIC50 mutant - pIC50 WT, mean
[5] = 1 h, PF-04418948 log([M]) -8, Fig. 3D, read-out: % cAMP activity (normalized to WT)
[6] = 1 h, PF-04418948 log([M]) -9, Fig. 3D, read-out: % cAMP activity (normalized to WT)
[7] = 1 h, PF-04418948 log([M]) -10, Fig. 3D, read-out: % cAMP activity (normalized to WT)
[8] = 1 h, PF-04418948 log([M]) -11, Fig. 3D, read-out: % cAMP activity (normalized to WT)
[9] = 1 h, PF-04418948 log([M]) -12, Fig. 3D, read-out: % cAMP activity (normalized to WT)
[10] = 1 h, PF-04418948 log([M]) -7, Fig. 3D, read-out: % cAMP activity (normalized to WT)
[11] = 1 h, ligand log([M]) -5, Fig. S7B, read-out: % cAMP activity (normalized to WT)
[12] = 1 h, ligand log([M]) -6, Fig. S7B, read-out: % cAMP activity (normalized to WT)
[13] = 1 h, ligand log([M]) -7, Fig. S7B, read-out: % cAMP activity (normalized to WT)
[14] = 1 h, ligand log([M]) -8, Fig. S7B, read-out: % cAMP activity (normalized to WT)
[15] = 1 h, ligand log([M]) -9, Fig. S7B, read-out: % cAMP activity (normalized to WT)
[16] = 1 h, ligand log([M]) -10, Fig. S7B, read-out: % cAMP activity (normalized to WT)
[17] = 1 h, ligand log([M]) -12, Fig. S7B, read-out: % cAMP activity (normalized to WT)

T10 sequence (P43116 whole entry I85V): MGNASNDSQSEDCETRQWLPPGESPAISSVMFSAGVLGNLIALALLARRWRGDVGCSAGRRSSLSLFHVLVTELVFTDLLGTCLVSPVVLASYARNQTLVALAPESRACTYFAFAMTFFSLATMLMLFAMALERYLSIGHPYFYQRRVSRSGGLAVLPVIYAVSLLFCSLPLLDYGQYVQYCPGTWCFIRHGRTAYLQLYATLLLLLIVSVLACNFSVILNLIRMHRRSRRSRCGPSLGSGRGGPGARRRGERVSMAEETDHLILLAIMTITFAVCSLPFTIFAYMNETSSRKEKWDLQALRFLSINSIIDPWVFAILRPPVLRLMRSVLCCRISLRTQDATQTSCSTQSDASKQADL
T11 sequence (P43116 whole entry M116L): as the sequence (P43116 whole entry I85V) above, with V85I, M116L counted along it
T4 sequence (P43116 whole entry W186A): as the sequence (P43116 whole entry I85V) above, with V85I, W186A counted along it
T8 sequence (P43116 whole entry M116A): as the sequence (P43116 whole entry I85V) above, with V85I, M116A counted along it
T1 sequence (P43116 whole entry M116A): as the sequence (P43116 whole entry I85V) above, with V85I, M116A counted along it
T5 sequence (P43116 whole entry S305A): as the sequence (P43116 whole entry I85V) above, with V85I, S305A counted along it
T3 sequence (P43116 whole entry S86A): as the sequence (P43116 whole entry I85V) above, with V85I, S86A counted along it
T7 sequence (P43116 whole entry T82A): as the sequence (P43116 whole entry I85V) above, with T82A, V85I counted along it
T2 sequence (P43116 whole entry T82A): as the sequence (P43116 whole entry I85V) above, with T82A, V85I counted along it
T9 sequence (P43116 whole entry L301I): as the sequence (P43116 whole entry I85V) above, with V85I, L301I counted along it
T6 sequence (P43116 whole entry S308A): as the sequence (P43116 whole entry I85V) above, with V85I, S308A counted along it

COc1ccc2cc(OCC3(C(=O)O)CN(C(=O)c4ccc(F)cc4)C3)ccc2c1 [PF-04418948]
remaining activity at 10 µM ([1]; 1 h, PF-04418948 log([M]) -5.00, read-out: % cAMP activity (normalized to WT)): 5.6%
remaining activity at 1 µM ([1]; 1 h, PF-04418948 log([M]) -6.00, read-out: % cAMP activity (normalized to WT)): 38.1%
remaining activity at 0.0001 µM [1, 3]: 245%
remaining activity at 10 pM ([1]; 1 h, PF-04418948 log([M]) -11.00, read-out: % cAMP activity (normalized to WT)): 252%
cAMP activity (∆pIC50 from EP2 WT) ([1]; PF-04418948, M116A, Mean): -1.518
ΔpIC50 [1, 4]: -1.52 ± 0.12
remaining activity at 0.0001 µM [2, 3]: 302%
remaining activity at 1 pM ([2]; 1 h, PF-04418948 log([M]) -12.00, read-out: % cAMP activity (normalized to WT)): 299%
cAMP activity (∆pIC50 from EP2 WT) ([2]; PF-04418948, T82A, Mean): -0.369
ΔpIC50 [2, 4]: -0.37 ± 0.10
remaining activity at 0.01 µM (EP2 S86A; [5]): 35%
remaining activity at 0.001 µM (EP2 S86A; [6]): 61.5%
remaining activity at 0.0001 µM (EP2 S86A; [7]): 63.4%
remaining activity at 10 pM (EP2 S86A; [8]): 75.5%
remaining activity at 1 pM (EP2 S86A; [9]): 72.4%
cAMP activity (∆pIC50 from EP2 WT) (EP2 S86A; Fig. 3E): 0.200 and 0.410 and 0.340
remaining activity at 1 µM (EP2 W186A; PF-04418948 log([M]) -6): 7.94%
remaining activity at 0.1 µM (EP2 W186A; PF-04418948 log([M]) -7): 18%
remaining activity at 0.01 µM (EP2 W186A; PF-04418948 log([M]) -8): 24.6%
remaining activity at 0.001 µM (EP2 W186A; PF-04418948 log([M]) -9): 23.9%
remaining activity at 0.0001 µM (EP2 W186A; PF-04418948 log([M]) -10): 24.4%
remaining activity at 10 pM (EP2 W186A; PF-04418948 log([M]) -11): 29.3%
remaining activity at 1 pM (EP2 W186A; PF-04418948 log([M]) -12): 27.9%
remaining activity at 0.1 µM (EP2 S305A; [10]): 22.4%
remaining activity at 0.01 µM (EP2 S305A; [5]): 45.9%
remaining activity at 0.0001 µM (EP2 S305A; [7]): 47.9%
remaining activity at 10 pM (EP2 S305A; [8]): 41.3%
cAMP activity (∆pIC50 from EP2 WT) (EP2 S305A; Fig. 3E): -1.170 and -1.396 and -1.144
remaining activity at 0.1 µM (EP2 S308A; [10]): 27.6%
remaining activity at 0.01 µM (EP2 S308A; [5]): 78.6%
remaining activity at 0.001 µM (EP2 S308A; [6]): 89.1%
remaining activity at 0.0001 µM (EP2 S308A; [7]): 86.2%
remaining activity at 10 pM (EP2 S308A; [8]): 84.2%
remaining activity at 1 pM (EP2 S308A; [9]): 83.9%
cAMP activity (∆pIC50 from EP2 WT) (EP2 S308A; Fig. 3E): -0.810 and -0.830 and -1.090
remaining activity at 1 µM (EP2 T82A; PF-04418948 log([M]) -6): 9.17%
remaining activity at 0.1 µM (EP2 T82A; PF-04418948 log([M]) -7): 19.3%
remaining activity at 0.01 µM (EP2 T82A; PF-04418948 log([M]) -8): 47.4%
remaining activity at 0.001 µM (EP2 T82A; PF-04418948 log([M]) -9): 55.3%
remaining activity at 1 µM (EP2 M116A; PF-04418948 log([M]) -6): 5.4%
remaining activity at 0.1 µM (EP2 M116A; PF-04418948 log([M]) -7): 26.1%
remaining activity at 0.01 µM (EP2 M116A; PF-04418948 log([M]) -8): 58.4%
remaining activity at 0.001 µM (EP2 M116A; PF-04418948 log([M]) -9): 56.2%
remaining activity at 0.0001 µM (EP2 M116A; PF-04418948 log([M]) -10): 64.8%
remaining activity at 10 pM (EP2 M116A; PF-04418948 log([M]) -11): 75.1%
remaining activity at 1 pM (EP2 M116A; PF-04418948 log([M]) -12): 77.8%
remaining activity at 10 µM (EP2-L301I; [11]): 20%
remaining activity at 1 µM (EP2-L301I; [12]): 51.7%
remaining activity at 0.1 µM (EP2-L301I; [13]): 121%
remaining activity at 0.01 µM (EP2-L301I; [14]): 112%
remaining activity at 0.001 µM (EP2-L301I; [15]): 117%
remaining activity at 0.0001 µM (EP2-L301I; [16]): 113%
remaining activity at 1 pM (EP2-L301I; [17]): 108%
cAMP activity (∆pIC50 from EP2 WT) (EP2-L301I; Appendix Fig. S7A): -1.743 and -1.549 and -1.608
remaining activity at 10 µM (EP2-I85V; [11]): 4.76%
remaining activity at 1 µM (EP2-I85V; [12]): 5.53%
remaining activity at 0.1 µM (EP2-I85V; [13]): 21.6%
remaining activity at 0.01 µM (EP2-I85V; [14]): 78.7%
remaining activity at 0.001 µM (EP2-I85V; [15]): 105%
remaining activity at 0.0001 µM (EP2-I85V; [16]): 94.6%
remaining activity at 10 pM (EP2-I85V; 1 h, ligand log([M]) -11, Fig. S7B, read-out: % cAMP activity (normalized to WT)): 103%
remaining activity at 1 pM (EP2-I85V; [17]): 91.7%
cAMP activity (∆pIC50 from EP2 WT) (EP2-I85V; Appendix Fig. S7A): -0.301 and -0.398 and -0.280
remaining activity at 10 µM (EP2-M116L; [11]): 11.8%
remaining activity at 1 µM (EP2-M116L; [12]): 12%
remaining activity at 0.1 µM (EP2-M116L; [13]): 36.7%
remaining activity at 0.01 µM (EP2-M116L; [14]): 98.5%
remaining activity at 0.001 µM (EP2-M116L; [15]): 132%
remaining activity at 0.0001 µM (EP2-M116L; [16]): 123%
remaining activity at 1 pM (EP2-M116L; [17]): 116%
cAMP activity (∆pIC50 from EP2 WT) (EP2-M116L; Appendix Fig. S7A): -0.408 and -0.463 and -0.307
